Experiments:
Experiment in all cases: KINOMEscan competition binding
Conditions in all cases: compound 10.0 µM
BMPR1A (human) = BMPR1A (human) (UniProt P36894)
NUAK1 (human) = NUAK1 (human) (UniProt O60285)
DMPK (human) = DMPK (human) (UniProt Q09013)
ERBB3 (human) = ERBB3 (human) (UniProt P21860)
CDK5 (human) = CDK5 (human) (UniProt Q00535)
LATS2 (human) = LATS2 (human) (UniProt Q9NRM7)
[1] = test system: FLT3 (human), P36888 [R834Q]
[2] = target: JAK1 JH1 catalytic (human) (UniProt P23458)
SIK1 (human) = SIK1 (human) (UniProt P57059)
INSR (human) = INSR (human) (UniProt P06213)
FGFR1 (human) = FGFR1 (human) (UniProt P11362)
RIPK4 (human) = RIPK4 (human) (UniProt P57078)
MST4 (human) = MST4 (human) (UniProt Q9P289)
PLK4 (human) = PLK4 (human) (UniProt O00444)
GAK (human) = GAK (human) (UniProt O14976)
SGK3 (human) = SGK3 (human) (UniProt Q96BR1)
PRKCE (human) = PRKCE (human) (UniProt Q02156)
PAK4 (human) = PAK4 (human) (UniProt O96013)
GSK3B (human) = GSK3B (human) (UniProt P49841)
ACVR1 (human) = ACVR1 (human) (UniProt Q04771)
PRKD3 (human) = PRKD3 (human) (UniProt O94806)
PRKCH (human) = PRKCH (human) (UniProt P24723)
MAP3K1 (human) = MAP3K1 (human) (UniProt Q13233)
PIM1 (human) = PIM1 (human) (UniProt P11309)
ACVR1B (human) = ACVR1B (human) (UniProt P36896)
MAP3K5 (human) = MAP3K5 (human) (UniProt Q99683)
AKT2 (human) = AKT2 (human) (UniProt P31751)
PAK3 (human) = PAK3 (human) (UniProt O75914)
CHUK (human) = CHUK (human) (UniProt O15111)
DYRK1A (human) = DYRK1A (human) (UniProt Q13627)
ACVR2A (human) = ACVR2A (human) (UniProt P27037)
RPS6KA2 KD1 (human) = RPS6KA2 KD1 (human) (UniProt Q15349)
TNIK (human) = TNIK (human) (UniProt Q9UKE5)
HIPK3 (human) = HIPK3 (human) (UniProt Q9H422)
FLT3 (human) = FLT3 (human) (UniProt P36888)
PLK3 (human) = PLK3 (human) (UniProt Q9H4B4)
AURKB (human) = AURKB (human) (UniProt Q96GD4)
EIF2AK1 (human) = EIF2AK1 (human) (UniProt Q9BQI3)
CAMKK2 (human) = CAMKK2 (human) (UniProt Q96RR4)
ALK (human) = ALK (human) (UniProt Q9UM73)

Sequence of PAK4 (human) (O96013 whole entry, looked up): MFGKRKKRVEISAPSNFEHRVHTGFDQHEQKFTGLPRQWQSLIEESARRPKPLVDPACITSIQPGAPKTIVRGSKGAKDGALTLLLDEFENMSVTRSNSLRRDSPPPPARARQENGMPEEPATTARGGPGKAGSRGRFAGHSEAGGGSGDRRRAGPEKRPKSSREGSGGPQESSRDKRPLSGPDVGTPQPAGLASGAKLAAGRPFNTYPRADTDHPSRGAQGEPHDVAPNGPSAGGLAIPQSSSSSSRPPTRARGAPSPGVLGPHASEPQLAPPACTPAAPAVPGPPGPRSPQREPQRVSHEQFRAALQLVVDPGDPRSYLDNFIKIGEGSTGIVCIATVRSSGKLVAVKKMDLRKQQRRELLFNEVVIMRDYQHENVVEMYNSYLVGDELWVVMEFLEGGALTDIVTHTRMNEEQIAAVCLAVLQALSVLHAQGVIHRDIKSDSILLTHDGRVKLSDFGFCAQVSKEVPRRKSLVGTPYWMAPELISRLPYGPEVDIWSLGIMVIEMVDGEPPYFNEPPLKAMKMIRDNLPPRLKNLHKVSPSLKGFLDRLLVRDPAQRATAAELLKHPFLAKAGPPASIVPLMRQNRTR
Sequence of PLK4 (human) (O00444 whole entry, looked up): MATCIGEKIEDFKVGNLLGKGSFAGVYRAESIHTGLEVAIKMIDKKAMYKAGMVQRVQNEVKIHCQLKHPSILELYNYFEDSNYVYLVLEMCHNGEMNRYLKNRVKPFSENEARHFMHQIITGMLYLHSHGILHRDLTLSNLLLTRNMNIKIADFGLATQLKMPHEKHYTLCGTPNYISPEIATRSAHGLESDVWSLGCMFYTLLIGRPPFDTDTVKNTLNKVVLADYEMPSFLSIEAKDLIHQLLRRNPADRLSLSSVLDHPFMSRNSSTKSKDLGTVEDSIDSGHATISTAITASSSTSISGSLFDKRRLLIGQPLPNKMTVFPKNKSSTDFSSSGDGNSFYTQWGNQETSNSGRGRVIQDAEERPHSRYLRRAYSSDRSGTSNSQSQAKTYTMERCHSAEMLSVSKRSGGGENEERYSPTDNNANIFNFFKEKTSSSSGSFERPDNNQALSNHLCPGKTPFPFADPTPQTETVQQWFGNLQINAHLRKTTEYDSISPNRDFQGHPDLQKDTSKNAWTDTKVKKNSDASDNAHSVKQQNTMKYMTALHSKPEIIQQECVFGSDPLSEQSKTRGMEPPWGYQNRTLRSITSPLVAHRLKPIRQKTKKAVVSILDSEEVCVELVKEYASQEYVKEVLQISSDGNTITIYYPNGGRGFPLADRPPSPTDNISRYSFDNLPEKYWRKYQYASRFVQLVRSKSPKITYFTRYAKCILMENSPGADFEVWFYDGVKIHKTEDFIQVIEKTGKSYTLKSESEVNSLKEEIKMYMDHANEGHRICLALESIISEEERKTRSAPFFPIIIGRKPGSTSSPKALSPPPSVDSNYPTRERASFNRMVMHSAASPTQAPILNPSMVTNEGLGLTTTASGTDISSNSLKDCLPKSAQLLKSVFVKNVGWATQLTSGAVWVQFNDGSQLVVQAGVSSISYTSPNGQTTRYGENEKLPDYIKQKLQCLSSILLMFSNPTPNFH
Sequence of GSK3B (human) (P49841 whole entry, looked up): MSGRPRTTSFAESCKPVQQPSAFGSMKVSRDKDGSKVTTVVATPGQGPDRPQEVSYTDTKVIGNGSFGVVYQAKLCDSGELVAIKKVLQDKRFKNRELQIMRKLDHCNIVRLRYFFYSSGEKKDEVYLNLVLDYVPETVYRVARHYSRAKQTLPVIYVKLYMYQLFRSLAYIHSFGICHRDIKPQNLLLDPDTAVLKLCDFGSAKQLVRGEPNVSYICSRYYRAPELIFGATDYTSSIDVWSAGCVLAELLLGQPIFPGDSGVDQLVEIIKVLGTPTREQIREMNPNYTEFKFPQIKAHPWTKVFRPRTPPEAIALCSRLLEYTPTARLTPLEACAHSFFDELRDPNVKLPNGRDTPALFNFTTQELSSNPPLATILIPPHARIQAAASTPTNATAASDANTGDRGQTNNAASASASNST
Sequence of PRKCE (human) (Q02156 whole entry, looked up): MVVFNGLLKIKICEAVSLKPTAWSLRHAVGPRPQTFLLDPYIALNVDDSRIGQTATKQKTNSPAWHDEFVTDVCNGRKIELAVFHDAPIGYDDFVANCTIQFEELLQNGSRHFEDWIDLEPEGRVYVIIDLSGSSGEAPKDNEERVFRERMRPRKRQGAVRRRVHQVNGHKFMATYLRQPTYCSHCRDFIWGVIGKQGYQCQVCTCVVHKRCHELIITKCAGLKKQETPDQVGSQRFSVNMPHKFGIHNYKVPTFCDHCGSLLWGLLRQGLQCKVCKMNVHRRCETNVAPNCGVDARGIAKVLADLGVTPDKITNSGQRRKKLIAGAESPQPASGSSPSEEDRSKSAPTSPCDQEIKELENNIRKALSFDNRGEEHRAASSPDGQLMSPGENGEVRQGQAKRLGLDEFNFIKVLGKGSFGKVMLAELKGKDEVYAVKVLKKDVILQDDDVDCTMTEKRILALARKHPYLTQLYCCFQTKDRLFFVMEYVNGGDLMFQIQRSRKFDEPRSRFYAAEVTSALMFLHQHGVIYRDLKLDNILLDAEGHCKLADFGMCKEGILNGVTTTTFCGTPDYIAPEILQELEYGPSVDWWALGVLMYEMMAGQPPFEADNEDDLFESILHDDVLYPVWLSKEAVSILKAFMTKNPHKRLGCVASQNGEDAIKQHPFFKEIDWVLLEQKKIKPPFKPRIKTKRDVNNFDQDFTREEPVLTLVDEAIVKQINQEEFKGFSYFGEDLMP
Sequence of FGFR1 (human) (P11362 whole entry, looked up): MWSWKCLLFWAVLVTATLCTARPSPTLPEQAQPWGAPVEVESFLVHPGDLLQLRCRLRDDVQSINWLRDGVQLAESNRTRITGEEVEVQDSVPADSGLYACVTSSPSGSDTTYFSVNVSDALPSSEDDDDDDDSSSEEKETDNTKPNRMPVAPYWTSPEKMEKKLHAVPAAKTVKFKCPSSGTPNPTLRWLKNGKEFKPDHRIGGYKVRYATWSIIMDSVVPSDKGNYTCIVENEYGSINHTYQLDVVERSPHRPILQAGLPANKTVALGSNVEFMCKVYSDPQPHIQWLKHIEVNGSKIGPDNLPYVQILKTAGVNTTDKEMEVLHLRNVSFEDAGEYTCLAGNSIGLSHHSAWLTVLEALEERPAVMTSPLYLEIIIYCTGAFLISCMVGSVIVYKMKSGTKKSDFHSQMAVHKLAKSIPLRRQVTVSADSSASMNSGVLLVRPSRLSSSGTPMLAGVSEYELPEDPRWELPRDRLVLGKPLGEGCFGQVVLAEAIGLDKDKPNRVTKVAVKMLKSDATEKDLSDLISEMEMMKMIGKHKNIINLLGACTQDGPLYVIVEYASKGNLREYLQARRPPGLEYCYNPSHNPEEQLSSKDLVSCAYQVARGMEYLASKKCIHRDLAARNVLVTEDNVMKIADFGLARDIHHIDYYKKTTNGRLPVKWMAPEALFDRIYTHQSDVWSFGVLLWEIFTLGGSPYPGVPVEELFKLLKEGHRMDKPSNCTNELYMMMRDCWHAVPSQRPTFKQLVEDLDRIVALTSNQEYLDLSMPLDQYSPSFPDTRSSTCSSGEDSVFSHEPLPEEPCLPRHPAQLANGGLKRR
Sequence of PLK3 (human) (Q9H4B4 whole entry, looked up): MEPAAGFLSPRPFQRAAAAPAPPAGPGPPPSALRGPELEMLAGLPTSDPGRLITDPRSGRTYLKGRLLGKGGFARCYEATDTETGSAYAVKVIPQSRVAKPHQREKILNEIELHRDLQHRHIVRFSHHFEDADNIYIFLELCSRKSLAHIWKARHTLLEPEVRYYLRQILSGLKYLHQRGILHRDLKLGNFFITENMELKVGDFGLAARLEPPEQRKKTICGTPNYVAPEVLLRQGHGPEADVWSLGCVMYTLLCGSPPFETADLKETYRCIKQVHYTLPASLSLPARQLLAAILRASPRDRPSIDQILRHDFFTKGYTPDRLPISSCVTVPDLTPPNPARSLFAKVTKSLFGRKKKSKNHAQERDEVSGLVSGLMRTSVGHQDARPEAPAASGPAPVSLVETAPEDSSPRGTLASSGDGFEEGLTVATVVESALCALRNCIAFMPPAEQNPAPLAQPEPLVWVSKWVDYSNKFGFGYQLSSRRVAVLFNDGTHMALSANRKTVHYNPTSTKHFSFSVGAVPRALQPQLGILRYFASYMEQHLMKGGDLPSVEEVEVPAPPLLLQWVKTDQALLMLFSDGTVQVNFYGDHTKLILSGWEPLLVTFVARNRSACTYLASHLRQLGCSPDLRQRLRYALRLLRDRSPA
Sequence of PRKD3 (human) (O94806 whole entry, looked up): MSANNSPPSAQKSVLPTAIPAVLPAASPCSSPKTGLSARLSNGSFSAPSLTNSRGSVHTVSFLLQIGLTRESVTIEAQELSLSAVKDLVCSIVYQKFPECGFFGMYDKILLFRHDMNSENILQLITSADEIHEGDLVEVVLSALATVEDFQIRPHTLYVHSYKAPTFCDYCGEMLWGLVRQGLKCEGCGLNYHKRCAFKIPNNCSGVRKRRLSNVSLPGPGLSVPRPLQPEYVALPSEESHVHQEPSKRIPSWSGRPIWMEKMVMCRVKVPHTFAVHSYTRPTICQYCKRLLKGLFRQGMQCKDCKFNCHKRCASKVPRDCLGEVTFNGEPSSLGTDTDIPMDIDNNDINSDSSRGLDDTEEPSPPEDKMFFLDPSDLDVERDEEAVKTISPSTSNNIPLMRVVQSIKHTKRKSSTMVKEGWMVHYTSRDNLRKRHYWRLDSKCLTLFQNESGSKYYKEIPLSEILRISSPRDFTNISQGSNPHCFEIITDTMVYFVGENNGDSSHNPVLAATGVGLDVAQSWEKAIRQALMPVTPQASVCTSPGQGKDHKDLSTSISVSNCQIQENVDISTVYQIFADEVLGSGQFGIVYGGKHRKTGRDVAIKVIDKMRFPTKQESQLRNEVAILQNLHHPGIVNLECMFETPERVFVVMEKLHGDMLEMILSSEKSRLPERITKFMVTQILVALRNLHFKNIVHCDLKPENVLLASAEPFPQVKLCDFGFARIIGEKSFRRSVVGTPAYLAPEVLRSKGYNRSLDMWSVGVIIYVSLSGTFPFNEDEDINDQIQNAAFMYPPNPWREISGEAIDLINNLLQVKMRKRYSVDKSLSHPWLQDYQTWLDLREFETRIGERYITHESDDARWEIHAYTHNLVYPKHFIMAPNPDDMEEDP

SMILES	kinase still bound, per cent of control (BMPR1A (human)) [%]	kinase still bound, per cent of control (NUAK1 (human)) [%]	kinase still bound, per cent of control (ERBB3 (human)) [%]	kinase still bound, per cent of control (CDK5 (human)) [%]	kinase still bound, per cent of control (LATS2 (human)) [%]	kinase still bound, per cent of control [1] [%]	kinase still bound, per cent of control [2] [%]	kinase still bound, per cent of control (SIK1 (human)) [%]	kinase still bound, per cent of control (FGFR1 (human)) [%]	kinase still bound, per cent of control (RIPK4 (human)) [%]	kinase still bound, per cent of control (MST4 (human)) [%]	kinase still bound, per cent of control (PLK4 (human)) [%]	kinase still bound, per cent of control (GAK (human)) [%]	kinase still bound, per cent of control (SGK3 (human)) [%]	kinase still bound, per cent of control (PRKCE (human)) [%]	kinase still bound, per cent of control (PAK4 (human)) [%]	kinase still bound, per cent of control (GSK3B (human)) [%]	kinase still bound, per cent of control (ACVR1 (human)) [%]	kinase still bound, per cent of control (PRKD3 (human)) [%]	kinase still bound, per cent of control (PRKCH (human)) [%]	also measured
C[C@@H](Oc1cc(-c2cnn(C3CCNCC3)c2)cnc1N)c1c(Cl)ccc(F)c1Cl	0.15	0.7	81	100	56	25	0.45	24	46	8.2	13	0.1	79	100	100	80	100	0.6	3	100	kinase still bound, per cent of control (DMPK (human)): 1.6%; kinase still bound, per cent of control (INSR (human)): 0.2%; kinase still bound, per cent of control (MAP3K1 (human)): 4.4%; kinase still bound, per cent of control (PIM1 (human)): 100%; kinase still bound, per cent of control (ACVR1B (human)): 9%; kinase still bound, per cent of control (MAP3K5 (human)): 100%; kinase still bound, per cent of control (AKT2 (human)): 100%; kinase still bound, per cent of control (PAK3 (human)): 5.8%; kinase still bound, per cent of control (CHUK (human)): 100%; kinase still bound, per cent of control (DYRK1A (human)): 100%; kinase still bound, per cent of control (ACVR2A (human)): 30%; kinase still bound, per cent of control (RPS6KA2 KD1 (human)): 34%; kinase still bound, per cent of control (TNIK (human)): 51%; kinase still bound, per cent of control (HIPK3 (human)): 92%; kinase still bound, per cent of control (FLT3 (human)): 7.8%; kinase still bound, per cent of control (PLK3 (human)): 85%
COCC(=O)NC/C=C/c1ccc2ncnc(Nc3ccc(Oc4ccc(C)nc4)c(C)c3)c2c1	17	100	20	100	100	100	100	100	100	100	90	74	84	100	100	87	68	90	83	100	kinase still bound, per cent of control (AURKB (human)): 100%; kinase still bound, per cent of control (EIF2AK1 (human)): 100%; kinase still bound, per cent of control (CAMKK2 (human)): 85%; kinase still bound, per cent of control (MAP3K1 (human)): 100%; kinase still bound, per cent of control (PIM1 (human)): 100%; kinase still bound, per cent of control (ACVR1B (human)): 100%; kinase still bound, per cent of control (MAP3K5 (human)): 90%; kinase still bound, per cent of control (AKT2 (human)): 100%; kinase still bound, per cent of control (ALK (human)): 100%; kinase still bound, per cent of control (PAK3 (human)): 70%; kinase still bound, per cent of control (CHUK (human)): 100%; kinase still bound, per cent of control (ACVR2A (human)): 100%; kinase still bound, per cent of control (RPS6KA2 KD1 (human)): 78%; kinase still bound, per cent of control (TNIK (human)): 89%; kinase still bound, per cent of control (HIPK3 (human)): 100%; kinase still bound, per cent of control (FLT3 (human)): 100%; kinase still bound, per cent of control (PLK3 (human)): 99%

Reference: the kinase profiling compilation of Christmann-Franck et al. (2016)
